# Laboratory results reported in patent US20120077843A1, “MALIGNANT PRECURSOR CELLS FROM DUCTAL CARCINOMA IN SITU LESIONS” (George Mason Intellectual Properties, Inc., priority 2009, published 2012).
# Read-outs that look alike come from different tables or passages of the source.
# Key:
# [1] = tested on: DCIS malignant precursor cells; test: Ex vivo invasion of autologous breast stroma in organoid culture; type: cell-based, human; settings: chloroquine phosphate treated organ culture
# Description: (§1) Organoid ex vivo culture. Dissected breast ductal tissue was grown in 115 cm^2 TPP reclosable flasks (MidSci) or 10 cm^2 culture tubes (MidSci) in serum free DMEM/F12 medium supplemented with human recombinant EGF (10 ng/mL), insulin (10 μg/mL), streptomycin sulfate (100 μg/mL) and gentamicin sulfate (20 μg/mL), with or without 0.36% (v/v) murine Engelbreth-Holm-Swarm (EHS) derived, growth factor reduced, basement membrane extract (Trevigen, Gaithersburg, Md., USA) at 37° C. in a humidified 5.0% CO2 atmosphere. Medium was replaced three times per week. Cultures were maintained continuously for up to one year. Periodically, organoids were removed, under microscopic visualization, for propagation into new culture flasks or phenotypic and molecular analysis.
# (§2) Pharmacological inhibition of autophagy. […] CO-containing medium was replaced three times per week for a period of 6 months.
# human DCIS spheroids = settings: for spheroid and 3-D structure formation (in words): DCIS organoid cultures, untreated up to 113 spheroids per duct organoid
# Description: Tissue collection. […] Gross tissue pathology at the time of procurement was assessed by a board certified pathologist. Tissue containing DCIS lesions was excised for further macrodissection and rinsed in sterile phosphate buffered saline to remove sentinel lymph node dye. Using sterile technique, ductal tissue was dissected from surrounding breast adipose/fibrous tissue. The ductal tissue was rinsed in serum free DMEM/F 12 medium (Invitrogen, Carlsbad, Calif., USA) supplemented with human recombinant EGF (10 ng/mL; Cell Signaling Technology, Danvers, Mass., USA or Millipore, Billerica, Mass., USA), insulin (10 μg/mL; Roche, Indianapolis, Ind., USA), streptomycin sulfate (100 μg/mL; Sigma, St. Louis, Mo., USA) and gentamicin sulfate (20 μg/mL; Sigma) prior to distribution in culture flasks (MidSci, St. Louis, Mo., USA). Ductal tissue was allowed to attach to the culture surface and observed daily for cellular outgrowths. Non-adherent organoids were removed from the culture flask.
# as §1, §2
# (§3) Statistics. The Student T-test, two tailed with Welch's correction, was used to calculate the p-value, and to determine the statistical difference of epithelial outgrowth area before and after CQ treatment. P values <0.05 were considered significant. Standard deviation (SO) or standard error of the mean (SEM) was calculated for group comparisons. Wilcoxon rank sum was used to determine the differences between CQ treated and untreated groups for the reverse phase protein arrays. A p=0.1 was considered different for small sample sizes.
# [2] = tested on: DCIS organoid culture spheroids; test: Autophagosome lysosome imaging with LysoTracker Red; type: cell-based, human; settings: chloroquine phosphate 50 μM for 2 weeks
# [3] = tested on: DCIS organoid cell cultures; test: Histomorphology (H&E of FFPE sections) of chloroquine treated DCIS organoids; type: cell-based, human; settings: for histology of intraductal epithelial cells / remaining adherent cells: chloroquine phosphate 50 μM, FIG. 14D
# Description: as §2
# Immunohistochemistry. Formalin fixed murine tissue or DCIS organoids were processed and paraffin embedded by commercial laboratories (AML Laboratories, Inc, Rosedale, Md. or Bi-Biomics, Nampa, Id.). Formalin fixed paraffin embedded (FFPE) tissue sections (5 μm or 1 μm thickness) mounted on positively charged glass slides were baked at 56° C. for 20 min., deparaffinized in xylene and rehydrated in a series of graded alcohols (100%, 95%, and 70%) with a final rinse in wash buffer (Dako, Carpinteria, Calif., USA). Antigen retrieval, when necessary, was performed with proteinase K or heat induced epitope retrieval. Immunostaining was performed on a Dako Autostainer with an Envision+HRP staining kit (Dako) per manufacturer's instructions. Stained tissue sections were counterstained with Hematoxylin (Dako), rinsed in distilled water and developed in Scott's Tap Water Substitute solution. Cover slips were applied using aqueous mounting medium (Faramount; Dako). Images were captured with an Olympus BX51 microscope using 4×, 10×, 20×, or 100× objectives.
# [4] = tested on: autophagy associated signal pathway proteins in DCIS spheroids; test: Cell signaling pathway mapping by reverse phase protein microarray (RPMA) of spheroids pre and post chloroquine; type: cell-based, human; settings: for autophagy associated signal pathway proteins (Atg5, AKT, ERK, mTOR, IRS-1, p38 etc.) by RPMA: spheroids pre and post chloroquine phosphate 50 μM for 4 days, n=3
# Description: as §2, §3
# [5] = listed as chloroquine phosphate
compound,measurement,setting,value
"CCN(CC)CCCC(C)Nc1ccnc2cc(Cl)ccc12 (stereo not shown) [chloroquine, N′-(7-chloroquinolin-4-yl)-N,N-diethyl-pentane-1,4-diamine]",ex vivo invasion of autologous stroma,[1],suppressed ex vivo invasion
same,spheroid and 3-D structure formation (in words),human DCIS spheroids,zero for the majority of explants
same,spheroid and 3-D structure formation (in words),human DCIS spheroids; listed as CQ,virtually abolished
same,spheroid and 3-D structure formation (in words),human DCIS spheroids; [5],completely suppressed
same,explants without any spheroids following chloroquine treatment,"human DCIS spheroids; case 09-148, 14 explants",12 out of 14
same,spheroids observed after treatment,"human DCIS spheroids; case 09-301, n=3, prior to treatment 20.5±7.8",no spheroids observed
same,"inhibition of spheroid outgrowth, CQ in combination with tamoxifen","human DCIS spheroids; cultured DCIS cells, combination with anti-estrogen compound (tamoxifen)",pronounced effect
same,spheroid integrity and LysoTracker Red distribution,[2],"Dissociation of the spheroid, and diffuse accumulation of LysoTracker Red"
same,histology of invading DCIS cells within the organoid,"[3]; 2 days post chloroquine treatment, 50 μM",Degeneration of the invading DCIS cells
same,histology of intraductal epithelial cells / remaining adherent cells,[3],Cellular swelling and apparent apoptotic death
same,histology of intraductal epithelial cells / remaining adherent cells,[3]; listed as CQ,lysosomal engorgement
same,histology of DCIS organoid cultured with chloroquine long term,"[3]; cultured in the presence of chloroquine for 6 months, 50 μM",complete absence of cellular outgrowths
same,apoptosis (elevation of cleaved PARP Asp214),[4]; as early as 48 hours post treatment,induced apoptosis
same,"autophagy associated signal pathway proteins (Atg5, AKT, ERK, mTOR, IRS-1, p38 etc.) by RPMA",[4]; listed as CQ,suppressed
same,"autophagy associated signal pathway proteins (Atg5, AKT, ERK, mTOR, IRS-1, p38 etc.) by RPMA",[4]; listed as Chloroquine,markedly inhibited
same,"autophagy associated signal pathway proteins (Atg5, AKT, ERK, mTOR, IRS-1, p38 etc.) by RPMA",[4]; [5],suppressed autophagy associated proteins
